# Results published in ChEMBL document CHEMBL5113555, “Potent PROTACs Targeting EGFR Mutants in Drug Discovery” (ACS Med Chem Lett, 2022).
# Experiments:
# [1] = biological target: Protein cereblon/Epidermal growth factor receptor (Homo sapiens, UniProt P00533+Q96SW2); experiment: Protac activity at E3 ubiquitin ligase/EGFR Del19/[…]/C797S mutant assessed as E3 ubiquitin ligase mediated EGFR degradation in human NCI-H1975 cells expressing Del19/[…]/C797S mutant in clone 28 after 16 hrs by HTRF assay; assay type: cell-based
# [2] = tested on: Protein cereblon/Epidermal growth factor receptor (Homo sapiens), P00533+Q96SW2 [UNDEFINED MUTATION]; experiment: Protac activity at E3 ubiquitin ligase/EGFR Del19/[…]/C797S mutant assessed as E3 ubiquitin ligase mediated EGFR degradation in human NCI-H1975 cells expressing Del19/[…]/C797S mutant in clone 28 after 16 hrs by HTRF assay relative to control; assay type: cell-based
# Chain of Protein cereblon/Epidermal growth factor receptor (Homo sapiens), P00533+Q96SW2 [UNDEFINED MUTATION] (P00533 whole entry, looked up, stated change not applied): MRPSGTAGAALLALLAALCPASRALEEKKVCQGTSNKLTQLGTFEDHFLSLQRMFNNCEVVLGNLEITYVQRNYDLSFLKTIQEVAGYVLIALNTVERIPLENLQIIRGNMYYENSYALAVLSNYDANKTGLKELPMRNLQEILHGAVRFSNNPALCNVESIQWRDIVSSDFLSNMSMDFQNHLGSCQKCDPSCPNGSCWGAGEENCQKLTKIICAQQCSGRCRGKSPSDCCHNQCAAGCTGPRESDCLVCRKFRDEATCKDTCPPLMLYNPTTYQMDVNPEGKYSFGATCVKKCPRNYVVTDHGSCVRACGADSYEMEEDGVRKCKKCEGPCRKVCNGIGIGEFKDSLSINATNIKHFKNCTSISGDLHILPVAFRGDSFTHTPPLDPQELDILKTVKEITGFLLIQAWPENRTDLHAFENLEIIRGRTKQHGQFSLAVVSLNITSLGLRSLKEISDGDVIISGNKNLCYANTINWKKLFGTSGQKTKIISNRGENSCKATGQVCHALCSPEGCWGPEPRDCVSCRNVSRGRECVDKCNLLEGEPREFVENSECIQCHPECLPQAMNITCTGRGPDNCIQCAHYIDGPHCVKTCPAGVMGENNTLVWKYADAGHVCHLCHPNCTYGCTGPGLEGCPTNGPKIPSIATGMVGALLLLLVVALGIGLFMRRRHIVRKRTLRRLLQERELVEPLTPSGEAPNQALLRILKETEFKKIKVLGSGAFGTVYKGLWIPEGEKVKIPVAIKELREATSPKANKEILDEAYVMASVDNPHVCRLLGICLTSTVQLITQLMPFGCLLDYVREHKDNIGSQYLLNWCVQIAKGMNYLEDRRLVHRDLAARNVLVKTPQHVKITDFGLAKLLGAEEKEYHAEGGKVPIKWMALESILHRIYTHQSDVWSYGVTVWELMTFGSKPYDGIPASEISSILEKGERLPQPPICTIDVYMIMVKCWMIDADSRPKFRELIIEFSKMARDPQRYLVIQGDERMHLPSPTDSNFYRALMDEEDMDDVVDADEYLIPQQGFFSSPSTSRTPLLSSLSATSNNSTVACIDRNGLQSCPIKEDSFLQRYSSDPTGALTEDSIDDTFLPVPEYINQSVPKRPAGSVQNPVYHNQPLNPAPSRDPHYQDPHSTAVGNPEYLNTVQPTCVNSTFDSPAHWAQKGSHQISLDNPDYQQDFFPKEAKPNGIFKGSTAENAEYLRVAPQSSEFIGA
# Chain of Protein cereblon/Epidermal growth factor receptor (Homo sapiens), P00533+Q96SW2 [UNDEFINED MUTATION] (Q96SW2 whole entry, looked up, stated change not applied): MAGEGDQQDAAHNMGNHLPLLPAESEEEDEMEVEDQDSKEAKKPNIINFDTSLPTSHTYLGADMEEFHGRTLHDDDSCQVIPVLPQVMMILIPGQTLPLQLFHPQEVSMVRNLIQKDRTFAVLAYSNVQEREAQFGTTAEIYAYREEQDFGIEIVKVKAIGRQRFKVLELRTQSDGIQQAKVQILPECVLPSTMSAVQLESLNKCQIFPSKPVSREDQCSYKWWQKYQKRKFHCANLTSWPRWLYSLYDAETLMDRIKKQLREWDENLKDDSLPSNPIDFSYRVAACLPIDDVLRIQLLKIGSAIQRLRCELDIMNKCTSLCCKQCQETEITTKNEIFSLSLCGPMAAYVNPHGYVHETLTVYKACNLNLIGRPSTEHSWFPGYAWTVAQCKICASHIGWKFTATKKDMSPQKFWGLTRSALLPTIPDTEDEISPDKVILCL
# Chain of Protein cereblon/Epidermal growth factor receptor (P00533 whole entry, looked up, stated change not applied): as the sequence (P00533 whole entry, looked up, stated change not applied) above
# Chain of Protein cereblon/Epidermal growth factor receptor (Q96SW2 whole entry, looked up, stated change not applied): as the sequence (Q96SW2 whole entry, looked up, stated change not applied) above
SMILES,DC50 [1] [µM],Emax [2] [%]
CCOc1cc(N2CCC(N3CCN(CCc4cccc5c4n(C)c(=O)n5C4CCC(=O)NC4=O)CC3)CC2)c(CC)cc1Nc1ncc(Br)c(Nc2cnc3cc(F)ccc3c2P(C)(C)=O)n1 (centres undefined),0.4,84
CCc1cc(Nc2ncc(Br)c(Nc3cnc4ccccc4c3P(C)(C)=O)n2)c(OC)cc1N1CCC(N2CCN(CCc3cccc4c3n(C3CC3)c(=O)n4C3CCC(=O)NC3=O)CC2)CC1 (centres undefined),0.7,85
CCOc1cc(N2CCC(N3CCN(CCc4cccc5c4n(C)c(=O)n5C4CCC(=O)NC4=O)CC3)CC2)c(CC)cc1Nc1ncc(Br)c(Nc2cnc3ccccc3c2P(C)(C)=O)n1 (centres undefined),4.4,84
CCc1cc(Nc2ncc(Br)c(Nc3cnc4ccccc4c3P(C)(C)=O)n2)c(OC)cc1N1CCC(N2CCN(CCc3ccc4c(oc(=O)n4C4CCC(=O)NC4=O)c3F)CC2)CC1 (centres undefined),0.9,81
CCOc1cc(N2CCC(N3CCN(CCc4cc(F)c(F)c5c4oc(=O)n5C4CCC(=O)NC4=O)CC3)CC2)c(CC)cc1Nc1ncc(Br)c(Nc2cnc3ccccc3c2P(C)(C)=O)n1 (centres undefined),0.6,81
CCc1cc(Nc2ncc(Br)c(Nc3cnc4ccccc4c3P(C)(C)=O)n2)c(OC)cc1N1CCC(N2CCN(CCc3cccc4c3n(CC)c(=O)n4C3CCC(=O)NC3=O)CC2)CC1 (centres undefined),0.9,83
CCc1cc(Nc2ncc(Br)c(Nc3cnc4ccccc4c3P(C)(C)=O)n2)c(OC)cc1N1CCC(N2CCN(CCc3ccc(F)c4c3n(C)c(=O)n4C3CCC(=O)NC3=O)CC2)CC1 (centres undefined),1,86
